# Measurements: PubChem BioAssay AID1963867 (Molecular Pharmacology Branch, DTP, NCI, 2024)
# pIC50: −log10 of the molar value.
# Tested on: KRAS-mutant PDC tumor spheroid with HUVEC/MSC, viability
# Test: Anticancer human tumor 327498-153-R-J2-PDC patient-derived uterine carcinosarcoma cell line growth inhibition [KRAS2]
# Conditions: for pIC50: curve of first compound; for viability, T/C: stronger effect = lower value
# Description: Multicellular complex tumor spheroid response to RAS pathway inhibitors in combination with a targeted agents in patient-derived cell lines with oncogenic KRAS variants from multiple cancer types
# A high-throughput screen of multi-cell type tumor spheroids was designed to identify active combinations of targeted small molecules and KRAS pathway inhibitors. Complex spheroids include a stromal component modeled by human endothelial cells (HUVEC) and fibroblasts modeled by human mesenchymal stem cells (MSCs). The concentration ranges selected for each drug and investigational agent were based upon clinically achievable concentrations if the clinical Cmax of the agent was known.
# Compounds. The drugs and investigational agents: BI-3406 (NSC825286), BAY-293 (NSC824723), batoprotafib (TNO155; NSC825523), sotorasib (AMG 510; NSC818433), MRTX1257 (NSC819558), elimusertib (BAY 1895344; NSC800525), molibresib (GSK525762; NSC774829), temuterkib (LY3214996; NSC803410), venetoclax (NSC766270), alisertib (NSC759677), olaparib (NSC753686), talazoparib (NSC767125), erdafitinib (NSC781556), ipatasertib (NSC767898), cabozantinib (NSC761068), nintedanib (NSC756659), abemaciclib (NSC768073), docetaxel (NSC628503), trametinib (NSC758246), and sapanisertib (NSC764658) were obtained from the National Cancer Institute (NCI) Developmental Therapeutics Program Chemical Repository. The FDA-approved anticancer drug set is available from the Developmental Therapeutics Program. […] The stock solutions were prepared in dimethyl sulfoxide (DMSO, Sigma-Aldrich, St. Louis, MO, cat. D2650) at 800-fold the tested concentration and stored at -70 degrees C prior to their use. All drugs and investigational agents were tested over a range starting from a high concentration at or near the clinical Cmax and decreasing in half-log increments. If the clinical Cmax for an agent had not been determined, the highest concentration tested was 10 microM.
# Cell Culture. All cells were maintained in an incubator at 37 degrees C and 5% CO2 with 95% humidity. The PDC lines were cultured according to standard operating procedures established by the NCI PDMR (https://pdmr.cancer.gov/sops/default.htm). Briefly, all PDCs were thawed and cultured in Matrigel-coated flasks prepared with a working solution of 1X Ham's F-12 nutrient mix, without supplementation (Invitrogen, Waltham, MA, cat. 11765054), 100 U/mL penicillin-streptomycin (Invitrogen, cat. 15140122), and 2.5% Matrigel (Corning Inc., Corning, NY, cat. 354248) for the first three passages. All PDCs were cultured in complete DMEM/F-12 media containing advanced DMEM/F-12 (Invitrogen, cat. 12634028), 4.9% defined fetal bovine serum, heat inactivated (HyClone Laboratories Inc., Logan, UT, cat. SH30070.03HI), 389 ng/mL hydrocortisone (Sigma-Aldrich, cat. H4001), 9.7 ng/mL human EGF recombinant protein (Invitrogen, cat. PHG0313), 23.4 microg/mL adenine (Sigma-Aldrich, cat. A2786), 97.3 U/mL penicillin-streptomycin (Invitrogen, cat. 15140122), 1.9 mM L-glutamine (Invitrogen, cat. 25030081), and 9.7 microM Y-27632 dihydrochloride (Tocris Bioscience, Bristol, United Kingdom, cat. 1254). The PDCs were cultured in complete DMEM/F12 media without 9.7 microM Y-27632 dihydrochloride for at least two passages prior to the screen. The established cell line HOP-62 was cultured in RPMI 1640 medium, HEPES (Invitrogen, cat. 22400105) with 10% defined fetal bovine serum (HyClone Laboratories Inc., cat. SH30070.03) and 2 mM L-glutamine (Invitrogen, cat. 25030081). The pooled donor HUVEC were cultured in endothelial cell growth medium 2 (PromoCell, Heidelberg, Germany, cat. C-22011) and the hMSC were cultured in mesenchymal stem cell growth medium 2 (PromoCell, cat. C-28009). For all experiments, HUVEC and hMSC were used at passages </=5, while the malignant cell lines were used at passages </=15. […]
# [1] = second compound 0.1 µM, first compound 0.0316 µM
# [2] = second compound 0.1 µM, first compound 0.1 µM
# [3] = second compound 0.316 µM, first compound 0.0316 µM
# [4] = second compound 0.316 µM, first compound 0.1 µM
# [5] = second compound 1 µM, first compound 0.0316 µM
# [6] = second compound 1 µM, first compound 0.1 µM
# [7] = second compound 3.16 µM, first compound 0.0316 µM
# [8] = second compound 3.16 µM, first compound 0.1 µM
# [9] = second compound 10 µM, first compound 0.0316 µM
# [10] = second compound 10 µM, first compound 0.1 µM
# 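Note: spheroids exposed to agents for seven days before reading.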
# 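Throughout, for viability, T/C: 100% = DMSO vehicle wells so lower means fewer viable cells.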
structure (smiles),measurement,setting,value
CC1(C)CCC(CN2CCN(c3ccc(C(=O)NS(=O)(=O)c4ccc(NCC5CCOCC5)c([N+](=O)[O-])c4)c(Oc4cnc5[nH]ccc5c4)c3)CC2)=C(c2ccc(Cl)cc2)C1 + C=CC(=O)N1CCN(c2nc(=O)n(-c3c(C)ccnc3C(C)C)c3nc(-c4c(O)cccc4F)c(F)cc23)C(C)C1,pIC50,second compound 0.1 µM,5.89
same,pIC50,second compound 0.316 µM,5.76
same,pIC50,second compound 1 µM,5.80
same,pIC50,second compound 3.16 µM,5.92
same,pIC50,second compound 10 µM,> 7.50
same,"viability, T/C",[1],65.7%
same,"viability, T/C",[2],61.1%
same,"viability, T/C","second compound 0.1 µM, first compound 0.316 µM",54%
same,"viability, T/C","second compound 0.1 µM, first compound 1 µM",57.4%
same,"viability, T/C","second compound 0.1 µM, first compound 3.16 µM",36.5%
same,"viability, T/C","second compound 0.1 µM, first compound 10 µM",1.21%
same,"viability, T/C",[3],57%
same,"viability, T/C",[4],54.5%
same,"viability, T/C","second compound 0.316 µM, first compound 0.316 µM",58.1%
same,"viability, T/C","second compound 0.316 µM, first compound 1 µM",57.5%
same,"viability, T/C","second compound 0.316 µM, first compound 3.16 µM",42.7%
same,"viability, T/C","second compound 0.316 µM, first compound 10 µM",6.41%
same,"viability, T/C",[5],60.7%
same,"viability, T/C",[6],55.2%
same,"viability, T/C","second compound 1 µM, first compound 0.316 µM",57.4%
same,"viability, T/C","second compound 1 µM, first compound 1 µM",52.2%
same,"viability, T/C","second compound 1 µM, first compound 3.16 µM",44.3%
same,"viability, T/C","second compound 1 µM, first compound 10 µM",1.34%
same,"viability, T/C",[7],52.6%
same,"viability, T/C",[8],53.5%
same,"viability, T/C","second compound 3.16 µM, first compound 0.316 µM",53.2%
same,"viability, T/C","second compound 3.16 µM, first compound 1 µM",52.6%
same,"viability, T/C","second compound 3.16 µM, first compound 3.16 µM",37.4%
same,"viability, T/C","second compound 3.16 µM, first compound 10 µM",0.58%
same,"viability, T/C",[9],43.2%
same,"viability, T/C",[10],41.6%
same,"viability, T/C","second compound 10 µM, first compound 0.316 µM",37.8%
same,"viability, T/C","second compound 10 µM, first compound 1 µM",46.5%
same,"viability, T/C","second compound 10 µM, first compound 3.16 µM",10.5%
same,"viability, T/C","second compound 10 µM, first compound 10 µM",2.01%
Cn1ncnc1[C@H]1c2n[nH]c(=O)c3cc(F)cc(c23)N[C@@H]1c1ccc(F)cc1 + C=CC(=O)N1CCN(c2nc(=O)n(-c3c(C)ccnc3C(C)C)c3nc(-c4c(O)cccc4F)c(F)cc23)C(C)C1,pIC50,second compound 0.1 µM,8.41
same,pIC50,second compound 0.316 µM,8.46
same,pIC50,second compound 1 µM,8.71
same,pIC50,second compound 3.16 µM,8.76
same,pIC50,second compound 10 µM,> 9.50
same,"viability, T/C","second compound 0.1 µM, first compound 0.000316 µM",63.7%
same,"viability, T/C","second compound 0.1 µM, first compound 0.001 µM",58.6%
same,"viability, T/C","second compound 0.1 µM, first compound 0.00316 µM",54%
same,"viability, T/C","second compound 0.1 µM, first compound 0.01 µM",36.1%
same,"viability, T/C",[1],22.2%
same,"viability, T/C",[2],15.6%
same,"viability, T/C","second compound 0.316 µM, first compound 0.000316 µM",54.8%
same,"viability, T/C","second compound 0.316 µM, first compound 0.001 µM",60.3%
same,"viability, T/C","second compound 0.316 µM, first compound 0.00316 µM",49.1%
same,"viability, T/C","second compound 0.316 µM, first compound 0.01 µM",36.9%
same,"viability, T/C",[3],19.8%
same,"viability, T/C",[4],15.4%
same,"viability, T/C","second compound 1 µM, first compound 0.000316 µM",59%
same,"viability, T/C","second compound 1 µM, first compound 0.001 µM",59.5%
same,"viability, T/C","second compound 1 µM, first compound 0.00316 µM",42.7%
same,"viability, T/C","second compound 1 µM, first compound 0.01 µM",34.1%
same,"viability, T/C",[5],21%
same,"viability, T/C",[6],15.9%
same,"viability, T/C","second compound 3.16 µM, first compound 0.000316 µM",55.9%
same,"viability, T/C","second compound 3.16 µM, first compound 0.001 µM",53%
same,"viability, T/C","second compound 3.16 µM, first compound 0.00316 µM",47%
same,"viability, T/C","second compound 3.16 µM, first compound 0.01 µM",32.4%
same,"viability, T/C",[7],21.7%
same,"viability, T/C",[8],14.8%
same,"viability, T/C","second compound 10 µM, first compound 0.000316 µM",39.9%
same,"viability, T/C","second compound 10 µM, first compound 0.001 µM",45.1%
same,"viability, T/C","second compound 10 µM, first compound 0.00316 µM",34.1%
same,"viability, T/C","second compound 10 µM, first compound 0.01 µM",20.5%
same,"viability, T/C",[9],16.9%
same,"viability, T/C",[10],13.4%
